Test results published in ChEMBL document CHEMBL5038625, “Application of the dual-tail approach for the design and synthesis of novel Thiopyrimidine-Benzenesulfonamide hybrids as selective carbonic anhydrase inhibitors” (Eur J Med Chem, 2022).
Blank lines part the entries; values can stand above or below the compound they belong to.

Experiments:
Carbonic anhydrase 2 = Carbonic anhydrase 2 (Homo sapiens, UniProt P00918); assay: Inhibition of human CA2 preincubated for 15 mins by phenol red dye based stopped flow CO2 hydration assay
Carbonic anhydrase 9 = Carbonic anhydrase 9 (Homo sapiens, UniProt Q16790); assay: Inhibition of human CA9 preincubated for 15 mins by phenol red dye based stopped flow CO2 hydration assay
SF-539 = assay: Antiproliferative activity against human SF-539 cells assessed as cell growth inhibition at 10 uM incubated for 24 hrs by sulforhodamine B assay; assay type: functional; details: read-out: GI
CCRF-CEM = assay: Antiproliferative activity against human CCRF-CEM cells assessed as cell growth inhibition at 10 uM incubated for 24 hrs by sulforhodamine B assay; assay type: functional; details: read-out: GI
K562 = assay: Antiproliferative activity against human K562 cells assessed as cell growth inhibition at 10 uM incubated for 24 hrs by sulforhodamine B assay; assay type: functional; details: read-out: GI
MOLT-4 = assay: Antiproliferative activity against human MOLT-4 cells assessed as cell growth inhibition at 10 uM incubated for 24 hrs by sulforhodamine B assay; assay type: functional; details: read-out: GI
SR = assay: Antiproliferative activity against human SR cells assessed as cell growth inhibition at 10 uM incubated for 24 hrs by sulforhodamine B assay; assay type: functional; details: read-out: GI
A549 = assay: Antiproliferative activity against human A549 cells assessed as cell growth inhibition at 10 uM incubated for 24 hrs by sulforhodamine B assay; assay type: functional; details: read-out: GI
[1] = Antiproliferative activity against human […] cells assessed as cell growth inhibition at 10 uM incubated for 24 hrs by sulforhodamine B assay; assay type: functional; details: read-out: GI
COLO 205 = assay: Antiproliferative activity against human COLO 205 cells assessed as cell growth inhibition at 10 uM incubated for 24 hrs by sulforhodamine B assay; assay type: functional; details: read-out: GI
HCT-116 = assay: Antiproliferative activity against human HCT-116 cells assessed as cell growth inhibition at 10 uM incubated for 24 hrs by sulforhodamine B assay; assay type: functional; details: read-out: GI
HCT-15 = assay: Antiproliferative activity against human HCT-15 cells assessed as cell growth inhibition at 10 uM incubated for 24 hrs by sulforhodamine B assay; assay type: functional; details: read-out: GI
HT-29 = assay: Antiproliferative activity against human HT-29 cells assessed as cell growth inhibition at 10 uM incubated for 24 hrs by sulforhodamine B assay; assay type: functional; details: read-out: GI
KM12 = assay: Antiproliferative activity against human KM12 cells assessed as cell growth inhibition at 10 uM incubated for 24 hrs by sulforhodamine B assay; assay type: functional; details: read-out: GI
LOX IMVI = assay: Antiproliferative activity against human LOX IMVI cells assessed as cell growth inhibition at 10 uM incubated for 24 hrs by sulforhodamine B assay; assay type: functional; details: read-out: GI
M14 = assay: Antiproliferative activity against human M14 cells assessed as cell growth inhibition at 10 uM incubated for 24 hrs by sulforhodamine B assay; assay type: functional; details: read-out: GI
SK-MEL-5 = assay: Antiproliferative activity against human SK-MEL-5 cells assessed as cell growth inhibition at 10 uM incubated for 24 hrs by sulforhodamine B assay; assay type: functional; details: read-out: GI
OVCAR-4 = assay: Antiproliferative activity against human OVCAR-4 cells assessed as cell growth inhibition at 10 uM incubated for 24 hrs by sulforhodamine B assay; assay type: functional; details: read-out: GI
OVCAR-5 = assay: Antiproliferative activity against human OVCAR-5 cells assessed as cell growth inhibition at 10 uM incubated for 24 hrs by sulforhodamine B assay; assay type: functional; details: read-out: GI
ACHN = assay: Antiproliferative activity against human ACHN cells assessed as cell growth inhibition at 10 uM incubated for 24 hrs by sulforhodamine B assay; assay type: functional; details: read-out: GI
CAKI-1 = assay: Antiproliferative activity against human CAKI-1 cells assessed as cell growth inhibition at 10 uM incubated for 24 hrs by sulforhodamine B assay; assay type: functional; details: read-out: GI
SN12C = assay: Antiproliferative activity against human SN12C cells assessed as cell growth inhibition at 10 uM incubated for 24 hrs by sulforhodamine B assay; assay type: functional; details: read-out: GI
UO-31 = assay: Antiproliferative activity against human UO-31 cells assessed as cell growth inhibition at 10 uM incubated for 24 hrs by sulforhodamine B assay; assay type: functional; details: read-out: GI
PC-3 = assay: Antiproliferative activity against human PC-3 cells assessed as cell growth inhibition at 10 uM incubated for 24 hrs by sulforhodamine B assay; assay type: functional; details: read-out: GI
DU-145 = assay: Antiproliferative activity against human DU-145 cells assessed as cell growth inhibition at 10 uM incubated for 24 hrs by sulforhodamine B assay; assay type: functional; details: read-out: GI
MCF7 = assay: Antiproliferative activity against human MCF7 cells assessed as cell growth inhibition at 10 uM incubated for 24 hrs by sulforhodamine B assay; assay type: functional; details: read-out: GI
T47D = assay: Antiproliferative activity against human T47D cells assessed as cell growth inhibition at 10 uM incubated for 24 hrs by sulforhodamine B assay; assay type: functional; details: read-out: GI
HL-60 = assay: Antiproliferative activity against human HL-60 cells assessed as cell growth inhibition at 10 uM incubated for 24 hrs by sulforhodamine B assay; assay type: functional; details: read-out: GI
RPMI-8226 = assay: Antiproliferative activity against human RPMI-8226 cells assessed as cell growth inhibition at 10 uM incubated for 24 hrs by sulforhodamine B assay; assay type: functional; details: read-out: GI
EKVX = assay: Antiproliferative activity against human EKVX cells assessed as cell growth inhibition at 10 uM incubated for 24 hrs by sulforhodamine B assay; assay type: functional; details: read-out: GI
NCI-H226 = assay: Antiproliferative activity against human NCI-H226 cells assessed as cell growth inhibition at 10 uM incubated for 24 hrs by sulforhodamine B assay; assay type: functional; details: read-out: GI
NCI-H23 = assay: Antiproliferative activity against human NCI-H23 cells assessed as cell growth inhibition at 10 uM incubated for 24 hrs by sulforhodamine B assay; assay type: functional; details: read-out: GI
NCI-H522 = assay: Antiproliferative activity against human NCI-H522 cells assessed as cell growth inhibition at 10 uM incubated for 24 hrs by sulforhodamine B assay; assay type: functional; details: read-out: GI
Malme-3M = assay: Antiproliferative activity against human Malme-3M cells assessed as cell growth inhibition at 10 uM incubated for 24 hrs by sulforhodamine B assay; assay type: functional; details: read-out: GI
SK-MEL-2 = assay: Antiproliferative activity against human SK-MEL-2 cells assessed as cell growth inhibition at 10 uM incubated for 24 hrs by sulforhodamine B assay; assay type: functional; details: read-out: GI
UACC-62 = assay: Antiproliferative activity against human UACC-62 cells assessed as cell growth inhibition at 10 uM incubated for 24 hrs by sulforhodamine B assay; assay type: functional; details: read-out: GI
RXF 393 = assay: Antiproliferative activity against human RXF 393 cells assessed as cell growth inhibition at 10 uM incubated for 24 hrs by sulforhodamine B assay; assay type: functional; details: read-out: GI
MDA-MB-468 = assay: Antiproliferative activity against human MDA-MB-468 cells assessed as cell growth inhibition at 10 uM incubated for 24 hrs by sulforhodamine B assay; assay type: functional; details: read-out: GI
MDA-MB-231 = assay: Antiproliferative activity against human MDA-MB-231 cells assessed as cell growth inhibition at 10 uM incubated for 24 hrs by sulforhodamine B assay; assay type: functional; details: read-out: GI

- Ki (Carbonic anhydrase 2): > 20 µM
- Ki (Carbonic anhydrase 9): 0.322 µM
SMILES: NS(=O)(=O)c1ccc(Nc2cc(-c3ccccc3)nc(SCC(=O)c3ccc(Br)cc3)n2)cc1
- inhibition of growth at 10 µM (SF-539): 5.75%
- inhibition of growth at 10 µM (CCRF-CEM): 8.13%
- inhibition of growth at 10 µM (K562): 22.8%
- inhibition of growth at 10 µM (MOLT-4): 15.8%
- inhibition of growth at 10 µM (SR): 15.7%
- inhibition of growth at 10 µM (A549): 6.27%
- inhibition of growth at 10 µM [1]: 14.2%
- inhibition of growth at 10 µM (COLO 205): 9.34%
- inhibition of growth at 10 µM (HCT-116): 8.87%
- inhibition of growth at 10 µM (HCT-15): 28.4%
- inhibition of growth at 10 µM (HT-29): 21.8%
- inhibition of growth at 10 µM (KM12): 11.9%
- inhibition of growth at 10 µM (LOX IMVI): 12.7%
- inhibition of growth at 10 µM (M14): 7.75%
- inhibition of growth at 10 µM (SK-MEL-5): 5.28%
- inhibition of growth at 10 µM (OVCAR-4): 7.69%
- inhibition of growth at 10 µM (OVCAR-5): 5.54%
- inhibition of growth at 10 µM (ACHN): 9.12%
- inhibition of growth at 10 µM (CAKI-1): 19.4%
- inhibition of growth at 10 µM (SN12C): 13.3%
- inhibition of growth at 10 µM (UO-31): 19.4%
- inhibition of growth at 10 µM (PC-3): 8.3%
- inhibition of growth at 10 µM (DU-145): 5.84%
- inhibition of growth at 10 µM (MCF7): 26.9%
- inhibition of growth at 10 µM (T47D): 10.3%

- Ki (Carbonic anhydrase 2): > 20 µM
- Ki (Carbonic anhydrase 9): 0.38 µM
SMILES: CC(C)c1nc(SCC(=O)c2ccc(Br)cc2)nc(Nc2ccc(S(N)(=O)=O)cc2)c1C#N
- inhibition of growth at 10 µM (HL-60): 24.1%
- inhibition of growth at 10 µM (K562): 9.23%
- inhibition of growth at 10 µM (MOLT-4): 13.7%
- inhibition of growth at 10 µM (RPMI-8226): 12.3%
- inhibition of growth at 10 µM (EKVX): 10.7%
- inhibition of growth at 10 µM (NCI-H226): 21.1%
- inhibition of growth at 10 µM (NCI-H23): 20.2%
- inhibition of growth at 10 µM (NCI-H522): 10.7%
- inhibition of growth at 10 µM (HCT-116): 6.95%
- inhibition of growth at 10 µM (HCT-15): 7.17%
- inhibition of growth at 10 µM (Malme-3M): 11.7%
- inhibition of growth at 10 µM (SK-MEL-2): 9.02%
- inhibition of growth at 10 µM (SK-MEL-5): 5.21%
- inhibition of growth at 10 µM (UACC-62): 24.3%
- inhibition of growth at 10 µM (OVCAR-4): 6.52%
- inhibition of growth at 10 µM (ACHN): 6.53%
- inhibition of growth at 10 µM (CAKI-1): 12.2%
- inhibition of growth at 10 µM (RXF 393): 22.2%
- inhibition of growth at 10 µM (SN12C): 5.41%
- inhibition of growth at 10 µM (UO-31): 31.2%
- inhibition of growth at 10 µM (PC-3): 12.5%
- inhibition of growth at 10 µM (MCF7): 6.24%
- inhibition of growth at 10 µM (T47D): 33%
- inhibition of growth at 10 µM (MDA-MB-468): 15.3%
- inhibition of growth at 10 µM (MDA-MB-231): 9.41%
